Results as given in US6414004B1 (priority 1998, dated 2002).

System: Polio 1 (Brunhilde strain)
Test: not given
Assay type: cell-based
Settings: Polio 1, plaque reduction

SMILES | Concentration inhibiting by 100% viral replication [µM]
CSc1noc(-c2ccc(OCCOc3ccc(Br)cc3)cc2)c1C#N [ON-14, 3-Methylthio-5-[4-[2-(4-bromophenoxy)ethoxy]phenyl]-4-isoxazolecarbonitrile] | 1
CSc1noc(-c2ccc(OCCOc3ccccc3)cc2)c1C#N [ON-8, 3-Methylthio-5-[4-(2-phenoxy-1-ethoxy)-phenyl]-4-isoxazolecarbonitrile] | 10

System: HRV-29
Test: Rhinovirus cytopathic effect reduction in HeLa-Ohio cells (MTT test)
Assay type: cell-based
Settings: HRV-29, HeLa-Ohio cells

SMILES | Concentration inhibiting by 100% viral replication [µM]
CSc1noc(-c2ccc(OCCCCOc3ccccc3)cc2)c1C#N [ON-10, 3-Methylthio-5-[4-(4-phenoxy-1-butoxy)-phenyl]-4-isoxazolecarbonitrile] | 1

System: ECHO 9 (ATCC: VR-133)
Test: Antiviral activity, direct inhibition of plaque number
Assay type: cell-based
Settings: ECHO 9, plaque reduction; read-out: Concentration inhibiting by 100% viral replication

SMILES | IC100 [µM]
CSc1noc(-c2ccc(OCCOc3ccc([N+](=O)[O-])cc3)cc2)c1C#N [ON-11, 3-Methylthio-5-[4-[2-(4-nitrophenoxy)ethoxy]phenyl]-4-isoxazolecarbonitrile] | 4
CSc1noc(-c2ccc(OCCCCOc3ccccc3)cc2)c1C#N [ON-10, 3-Methylthio-5-[4-(4-phenoxy-1-butoxy)-phenyl]-4-isoxazolecarbonitrile] | 1
CSc1noc(-c2ccc(OCCOc3ccc(Br)cc3)cc2)c1C#N [ON-14, 3-Methylthio-5-[4-[2-(4-bromophenoxy)ethoxy]phenyl]-4-isoxazolecarbonitrile] | 0.06
CSc1noc(-c2ccc(OCCOc3ccccc3)cc2)c1C#N [ON-8, 3-Methylthio-5-[4-(2-phenoxy-1-ethoxy)-phenyl]-4-isoxazolecarbonitrile] | 0.2
CSc1noc(-c2ccc(OCCCOc3ccccc3)cc2)c1C#N [ON-9, 3-Methylthio-5-[4-(3-phenoxy-1-propoxy)-phenyl]-4-isoxazolecarbonitrile] | 0.1

System: HEp2 cells
Test: Cytotoxicity, HEp2 cell proliferation (microscopy, MTT test)
Assay type: cell-based
Settings: 48-72 h incubation at 37° C.
Description: (§1) The cytotoxicity of each substance was determined by direct observation under microscope, and mitochondrial dehydrogenases activities were assayed according to the MTT test (F. Denizot et al., Immunol. Methods, 1986, 89, 271).
(§2) The concentration of compound which, after 48-72 h of incubation at 37° C., inhibited by 50% the cell proliferation was defined as cytotoxic dose 50% (CD50).

SMILES | Concentration inhibiting by 50% HEp2 cell proliferation: CD50 [µM]
CSc1noc(-c2ccc(OCCOc3ccc([N+](=O)[O-])cc3)cc2)c1C#N [ON-11, 3-Methylthio-5-[4-[2-(4-nitrophenoxy)ethoxy]phenyl]-4-isoxazolecarbonitrile] | 25
CSc1noc(-c2ccc(OCCCCOc3ccccc3)cc2)c1C#N [ON-10, 3-Methylthio-5-[4-(4-phenoxy-1-butoxy)-phenyl]-4-isoxazolecarbonitrile] | 10
CSc1noc(-c2ccc(OCCOc3ccc(Br)cc3)cc2)c1C#N [ON-14, 3-Methylthio-5-[4-[2-(4-bromophenoxy)ethoxy]phenyl]-4-isoxazolecarbonitrile] | > 25
CSc1noc(-c2ccc(OCCOc3ccccc3)cc2)c1C#N [ON-8, 3-Methylthio-5-[4-(2-phenoxy-1-ethoxy)-phenyl]-4-isoxazolecarbonitrile] | > 25
CSc1noc(-c2ccc(OCCCOc3ccccc3)cc2)c1C#N [ON-9, 3-Methylthio-5-[4-(3-phenoxy-1-propoxy)-phenyl]-4-isoxazolecarbonitrile] | 20

System: HeLa cells
Test: Cytotoxicity, HeLa cell proliferation (microscopy, MTT test)
Assay type: cell-based
Settings: 48-72 h incubation at 37° C.
Description: as §1, §2

SMILES | Concentration inhibiting by 50% HeLa cell proliferation: CD50 [µM]
CSc1noc(-c2ccc(OCCOc3ccc([N+](=O)[O-])cc3)cc2)c1C#N [ON-11, 3-Methylthio-5-[4-[2-(4-nitrophenoxy)ethoxy]phenyl]-4-isoxazolecarbonitrile] | 10
CSc1noc(-c2ccc(OCCCCOc3ccccc3)cc2)c1C#N [ON-10, 3-Methylthio-5-[4-(4-phenoxy-1-butoxy)-phenyl]-4-isoxazolecarbonitrile] | 10
CSc1noc(-c2ccc(OCCOc3ccc(Br)cc3)cc2)c1C#N [ON-14, 3-Methylthio-5-[4-[2-(4-bromophenoxy)ethoxy]phenyl]-4-isoxazolecarbonitrile] | 10
CSc1noc(-c2ccc(OCCOc3ccccc3)cc2)c1C#N [ON-8, 3-Methylthio-5-[4-(2-phenoxy-1-ethoxy)-phenyl]-4-isoxazolecarbonitrile] | > 25
CSc1noc(-c2ccc(OCCCOc3ccccc3)cc2)c1C#N [ON-9, 3-Methylthio-5-[4-(3-phenoxy-1-propoxy)-phenyl]-4-isoxazolecarbonitrile] | 20

System: HRV-89
Test: Rhinovirus cytopathic effect reduction in HeLa-Ohio cells (MTT test)
Assay type: cell-based
Settings: HRV-89, HeLa-Ohio cells

SMILES | Concentration inhibiting by 100% viral replication [µM]
CSc1noc(-c2ccc(OCCCCOc3ccccc3)cc2)c1C#N [ON-10, 3-Methylthio-5-[4-(4-phenoxy-1-butoxy)-phenyl]-4-isoxazolecarbonitrile] | 1
CSc1noc(-c2ccc(OCCOc3ccc(Br)cc3)cc2)c1C#N [ON-14, 3-Methylthio-5-[4-[2-(4-bromophenoxy)ethoxy]phenyl]-4-isoxazolecarbonitrile] | 2
CSc1noc(-c2ccc(OCCOc3ccccc3)cc2)c1C#N [ON-8, 3-Methylthio-5-[4-(2-phenoxy-1-ethoxy)-phenyl]-4-isoxazolecarbonitrile] | 5
CSc1noc(-c2ccc(OCCCOc3ccccc3)cc2)c1C#N [ON-9, 3-Methylthio-5-[4-(3-phenoxy-1-propoxy)-phenyl]-4-isoxazolecarbonitrile] | 5

System: Coxsackie B1 (ATCC: VR-28)
Test: Antiviral activity, direct inhibition of plaque number
Assay type: cell-based
Settings: Coxsackie B1, plaque reduction; read-out: Concentration inhibiting by 100% viral replication

SMILES | IC100 [µM]
CSc1noc(-c2ccc(OCCOc3ccc([N+](=O)[O-])cc3)cc2)c1C#N [ON-11, 3-Methylthio-5-[4-[2-(4-nitrophenoxy)ethoxy]phenyl]-4-isoxazolecarbonitrile] | 10
CSc1noc(-c2ccc(OCCCCOc3ccccc3)cc2)c1C#N [ON-10, 3-Methylthio-5-[4-(4-phenoxy-1-butoxy)-phenyl]-4-isoxazolecarbonitrile] | 0.02
CSc1noc(-c2ccc(OCCOc3ccc(Br)cc3)cc2)c1C#N [ON-14, 3-Methylthio-5-[4-[2-(4-bromophenoxy)ethoxy]phenyl]-4-isoxazolecarbonitrile] | 0.06
CSc1noc(-c2ccc(OCCOc3ccccc3)cc2)c1C#N [ON-8, 3-Methylthio-5-[4-(2-phenoxy-1-ethoxy)-phenyl]-4-isoxazolecarbonitrile] | 10
CSc1noc(-c2ccc(OCCCOc3ccccc3)cc2)c1C#N [ON-9, 3-Methylthio-5-[4-(3-phenoxy-1-propoxy)-phenyl]-4-isoxazolecarbonitrile] | 1

System: not given
Test: not given
Settings: not given

SMILES | melting point [°C]
CSc1noc(-c2ccc(OCCOc3ccc([N+](=O)[O-])cc3)cc2)c1C#N [ON-11, 3-Methylthio-5-[4-[2-(4-nitrophenoxy)ethoxy]phenyl]-4-isoxazolecarbonitrile] | 170 to 171
CSc1noc(-c2ccc(OCCCCOc3ccccc3)cc2)c1C#N [ON-10, 3-Methylthio-5-[4-(4-phenoxy-1-butoxy)-phenyl]-4-isoxazolecarbonitrile] | 113 to 114
CSc1noc(-c2ccc(OCCOc3ccc(Br)cc3)cc2)c1C#N [ON-14, 3-Methylthio-5-[4-[2-(4-bromophenoxy)ethoxy]phenyl]-4-isoxazolecarbonitrile] | 156 to 157
CSc1noc(-c2ccc(OCCOc3ccccc3)cc2)c1C#N [ON-8, 3-Methylthio-5-[4-(2-phenoxy-1-ethoxy)-phenyl]-4-isoxazolecarbonitrile] | 128 to 131
CSc1noc(-c2ccc(OCCCOc3ccccc3)cc2)c1C#N [ON-9, 3-Methylthio-5-[4-(3-phenoxy-1-propoxy)-phenyl]-4-isoxazolecarbonitrile] | 121 to 123

System: Measles (Edmonston strain)
Test: Antiviral activity, direct inhibition of plaque number
Assay type: cell-based
Settings: Measles morbillivirus, read-out: Concentration inhibiting by 100% viral replication

SMILES | IC100 [µM]
CSc1noc(-c2ccc(OCCOc3ccc([N+](=O)[O-])cc3)cc2)c1C#N [ON-11, 3-Methylthio-5-[4-[2-(4-nitrophenoxy)ethoxy]phenyl]-4-isoxazolecarbonitrile] | 10
CSc1noc(-c2ccc(OCCCCOc3ccccc3)cc2)c1C#N [ON-10, 3-Methylthio-5-[4-(4-phenoxy-1-butoxy)-phenyl]-4-isoxazolecarbonitrile] | 0.02
CSc1noc(-c2ccc(OCCOc3ccc(Br)cc3)cc2)c1C#N [ON-14, 3-Methylthio-5-[4-[2-(4-bromophenoxy)ethoxy]phenyl]-4-isoxazolecarbonitrile] | 0.2
CSc1noc(-c2ccc(OCCCOc3ccccc3)cc2)c1C#N [ON-9, 3-Methylthio-5-[4-(3-phenoxy-1-propoxy)-phenyl]-4-isoxazolecarbonitrile] | 10

System: HRV-14
Test: Rhinovirus cytopathic effect reduction in HeLa-Ohio cells (MTT test)
Assay type: cell-based
Settings: HRV-14, HeLa-Ohio cells

SMILES | Concentration inhibiting by 100% viral replication [µM]
CSc1noc(-c2ccc(OCCCCOc3ccccc3)cc2)c1C#N [ON-10, 3-Methylthio-5-[4-(4-phenoxy-1-butoxy)-phenyl]-4-isoxazolecarbonitrile] | 1
CSc1noc(-c2ccc(OCCOc3ccc(Br)cc3)cc2)c1C#N [ON-14, 3-Methylthio-5-[4-[2-(4-bromophenoxy)ethoxy]phenyl]-4-isoxazolecarbonitrile] | 2

System: HRV-86
Test: as above
Assay type: cell-based
Settings: Enterovirus, HRV86; HRV-86, HeLa-Ohio cells; read-out: Concentration inhibiting by 100% viral replication

SMILES | IC100 [µM]
CSc1noc(-c2ccc(OCCOc3ccc([N+](=O)[O-])cc3)cc2)c1C#N [ON-11, 3-Methylthio-5-[4-[2-(4-nitrophenoxy)ethoxy]phenyl]-4-isoxazolecarbonitrile] | 2
CSc1noc(-c2ccc(OCCCCOc3ccccc3)cc2)c1C#N [ON-10, 3-Methylthio-5-[4-(4-phenoxy-1-butoxy)-phenyl]-4-isoxazolecarbonitrile] | 1
CSc1noc(-c2ccc(OCCOc3ccc(Br)cc3)cc2)c1C#N [ON-14, 3-Methylthio-5-[4-[2-(4-bromophenoxy)ethoxy]phenyl]-4-isoxazolecarbonitrile] | 2
CSc1noc(-c2ccc(OCCOc3ccccc3)cc2)c1C#N [ON-8, 3-Methylthio-5-[4-(2-phenoxy-1-ethoxy)-phenyl]-4-isoxazolecarbonitrile] | 5
CSc1noc(-c2ccc(OCCCOc3ccccc3)cc2)c1C#N [ON-9, 3-Methylthio-5-[4-(3-phenoxy-1-propoxy)-phenyl]-4-isoxazolecarbonitrile] | 5

System: HRV-70
Test: as above
Assay type: cell-based
Settings: Enterovirus, HRV70; HRV-70, HeLa-Ohio cells; read-out: Concentration inhibiting by 100% viral replication

SMILES | IC100 [µM]
CSc1noc(-c2ccc(OCCOc3ccc([N+](=O)[O-])cc3)cc2)c1C#N [ON-11, 3-Methylthio-5-[4-[2-(4-nitrophenoxy)ethoxy]phenyl]-4-isoxazolecarbonitrile] | 8
CSc1noc(-c2ccc(OCCCCOc3ccccc3)cc2)c1C#N [ON-10, 3-Methylthio-5-[4-(4-phenoxy-1-butoxy)-phenyl]-4-isoxazolecarbonitrile] | 1
CSc1noc(-c2ccc(OCCOc3ccc(Br)cc3)cc2)c1C#N [ON-14, 3-Methylthio-5-[4-[2-(4-bromophenoxy)ethoxy]phenyl]-4-isoxazolecarbonitrile] | 2
CSc1noc(-c2ccc(OCCOc3ccccc3)cc2)c1C#N [ON-8, 3-Methylthio-5-[4-(2-phenoxy-1-ethoxy)-phenyl]-4-isoxazolecarbonitrile] | 5
CSc1noc(-c2ccc(OCCCOc3ccccc3)cc2)c1C#N [ON-9, 3-Methylthio-5-[4-(3-phenoxy-1-propoxy)-phenyl]-4-isoxazolecarbonitrile] | 5

System: HRV-1B
Test: as above
Assay type: cell-based
Settings: not given

SMILES | Concentration inhibiting by 100% viral replication [µM]
CSc1noc(-c2ccc(OCCCCOc3ccccc3)cc2)c1C#N [ON-10, 3-Methylthio-5-[4-(4-phenoxy-1-butoxy)-phenyl]-4-isoxazolecarbonitrile] | 2
CSc1noc(-c2ccc(OCCOc3ccccc3)cc2)c1C#N [ON-8, 3-Methylthio-5-[4-(2-phenoxy-1-ethoxy)-phenyl]-4-isoxazolecarbonitrile] | 5
CSc1noc(-c2ccc(OCCCOc3ccccc3)cc2)c1C#N [ON-9, 3-Methylthio-5-[4-(3-phenoxy-1-propoxy)-phenyl]-4-isoxazolecarbonitrile] | 10
